What was measured:
[1] = test system: Monographella nivalis; test: Monographella nivalis (Microdochium nivale)/liquid culture (foot rot cereals); assay type: cell-based; conditions: liquid culture, PDB, 24° C., growth inhibition photometric 4-5 days after application, read-out: control of Monographella nivalis compared to untreated control
Method: (§1) Conidia of the fungus from cryogenic storage are directly mixed into nutrient broth (PDB potato dextrose broth). After placing a (DMSO) solution of test compound into a microtiter plate (96-well format), the nutrient broth containing the fungal spores is added. The test plates are incubated at 24° C. and the inhibition of growth is determined photometrically 4-5 days after application.

[2] = test system: Mycosphaerella arachidis; test: Mycosphaerella arachidis (Cercospora arachidicola)/liquid culture (early leaf spot); assay type: cell-based; conditions: liquid culture, PDB, 24° C., growth inhibition photometric 4-5 days after application, read-out: control of Mycosphaerella arachidis compared to untreated control
Method: as §1

[3] = test system: Mycosphaerella graminicola; test: Mycosphaerella graminicola (Septoria tritici)/liquid culture (Septoria blotch); assay type: cell-based; conditions: Zymoseptoria tritici, liquid culture, PDB, 24° C., growth inhibition photometric 4-5 days after application, read-out: control of Mycosphaerella graminicola compared to untreated control
Method: as §1

[4] = test system: Pyrenophora teres; test: Pyrenophora teres/barley/leaf disc preventative (net blotch); assay type: in vivo; conditions: 200 ppm, barley leaf segments cv. Hasso, inoculated 2 days after application, assessed 5-7 days after application
Method: Barley leaf segments cv. Hasso are placed on agar in a multiwell plate (24-well format) and sprayed with the formulated test compound diluted in water. The leaf segments are inoculated with a spore suspension of the fungus 2 days after application. The inoculated leaf segments are incubated at 20° C. and 65% rh under a light regime of 12 h light/12 h darkness in a climate cabinet and the activity of a compound is assessed as disease control compared to untreated when an appropriate level of disease damage appears in untreated check leaf segments (5-7 days after application).

[5] = test system: Botryotinia fuckeliana; test: Botryotinia fuckeliana (Botrytis cinerea)/liquid culture (gray mould); assay type: cell-based; conditions: liquid culture, Vogels broth, 24° C., growth inhibition photometric 3-4 days after application, read-out: control of Botryotinia fuckeliana compared to untreated control
Method: as §1, with “(Vogels” for “(PDB potato dextrose”, “3-4” for “4-5”

[6] = test system: Glomerella lagenarium; test: Glomerella lagenarium (Colletotrichum lagenarium)/liquid culture (anthracnose); assay type: cell-based; conditions: Colletotrichum orbiculare, liquid culture, PDB, 24° C., growth inhibition photometric 3-4 days after application, read-out: control of Glomerella lagenarium compared to untreated control
Method: as §1, with “measured” for “determined”, “3-4” for “4-5”

[7] = test system: Alternaria solani; test: Alternaria solani/tomato/leaf disc (early blight); assay type: in vivo; conditions: 200 ppm; tomato leaf disks cv. Baby; inoculated 2 days after application; assessed 5-7 days after application
Method: Tomato leaf disks cv. Baby are placed on agar in multiwell plates (24-well format) and sprayed with the formulated test compound diluted in water. The leaf disks are inoculated with a spore suspension of the fungus 2 days after application. The inoculated leaf disks are incubated at 23° C./21° C. (day/night) and 80% rh under a light regime of 12/12 h (light/dark) in a climate cabinet and the activity of a compound is assessed as percent disease control compared to untreated when an appropriate level of disease damage appears on untreated check disk leaf disks (5-7 days after application).

[8] = test system: Phaeosphaeria nodorum; test: Phaeosphaeria nodorum (Septoria nodorum)/wheat/leaf disc preventative (glume blotch); assay type: in vivo; conditions: 200 ppm, wheat leaf segments cv. Kanzler, inoculated 2 days after application, assessed 5-7 days after application
Method: Wheat leaf segments cv. Kanzler are placed on agar in a multiwell plate (24-well format) and sprayed with the formulated test compound diluted in water. The leaf disks are inoculated with a spore suspension of the fungus 2 days after application. The inoculated test leaf disks are incubated at 20° C. and 75% rh under a light regime of 12 h light/12 h darkness in a climate cabinet and the activity of a compound is assessed as percent disease control compared to untreated when an appropriate level of disease damage appears in untreated check leaf disks (5-7 days after application).

COc1ccc2c(c1)C(c1cnn(C)c1)CN(C(=O)c1nnn(-c3ccc(F)cc3F)n1)C2C (racemic) [Compound P-34, [2-(2,4-difluorophenyl)tetrazol-5-yl]-[6-methoxy-1-methyl-4-(1-methylpyrazol-4-yl)-3,4-dihydro-1H-isoquinolin-2-yl]methanone]
inhibition of growth at 20 ppm [1]: ≥ 80% | inhibition of growth at 20 ppm [2]: ≥ 80% | inhibition of growth at 20 ppm [3]: ≥ 80%

Cn1cc(C2CN(C(=O)c3cn(-c4ccc(F)cc4F)nn3)Cc3ccccc32)cn1 (stereo not shown) [Compound P-8, [1-(2,4-difluorophenyl)triazol-4-yl]-[4-(1-methylpyrazol-4-yl)-3,4-dihydro-1H-isoquinolin-2-yl]methanone]
control of Pyrenophora teres compared to untreated control [4]: at least 80%

COc1ccc2c(c1)[C@@H](c1cnn(C)c1)CN(C(=O)c1nnn(-c3ccc(F)cc3F)n1)[C@H]2C (single isomer, unassigned) [Compound P-38]
inhibition of growth at 20 ppm [1]: ≥ 80% | inhibition of growth at 20 ppm [2]: ≥ 80% | inhibition of growth at 20 ppm [3]: ≥ 80%

C[C@H]1c2ccccc2[C@@H](c2cnn(C)c2Cl)CN1C(=O)c1cnn(-c2ccc(F)cc2F)n1 [Compound P-45, [(1S,4S)-4-(5-chloro-1-methyl-pyrazol-4-yl)-1-methyl-3,4-dihydro-1H-isoquinolin-2-yl]-[2-(2,4-difluorophenyl)triazol-4-yl]methanone]
inhibition of growth at 20 ppm [3]: ≥ 80%

COc1ccc2c(c1)C(c1cnn(C)c1)CN(C(=O)c1nnn(-c3ccccc3)n1)C2C (stereo not shown) [Compound P-35, [6-methoxy-1-methyl-4-(1-methylpyrazol-4-yl)-3,4-dihydro-1H-isoquinolin-2-yl]-(2-phenyltetrazol-5-yl)methanone]
inhibition of growth at 20 ppm [5]: ≥ 80% | inhibition of growth at 20 ppm [6]: ≥ 80% | inhibition of growth at 20 ppm [1]: ≥ 80% | inhibition of growth at 20 ppm [2]: ≥ 80% | control of Pyrenophora teres compared to untreated control [4]: at least 80% | inhibition of growth at 20 ppm [3]: ≥ 80%

Cc1c([C@H]2CN(C(=O)c3cnn(-c4ccc(F)cc4F)n3)[C@@H](C)c3ccccc32)cnn1C (racemic) [Compound P-40, [2-(2,4-difluorophenyl)triazol-4-yl]-[rac-(1S,4S)-4-(1,5-dimethylpyrazol-4-yl)-1-methyl-3,4-dihydro-1H-isoquinolin-2-yl]methanone]
control of Pyrenophora teres compared to untreated control [4]: at least 80% | inhibition of growth at 20 ppm [3]: ≥ 80%

Cn1cc(C2CN(C(=O)c3nnn(-c4ccccc4)n3)Cc3ccccc32)cn1 (stereo not shown) [Compound P-14, [4-(1-methylpyrazol-4-yl)-3,4-dihydro-1H-isoquinolin-2-yl]-(2-phenyltetrazol-5-yl)methanone]
control of Alternaria solani compared to untreated control [7]: at least 80% | inhibition of growth at 20 ppm [5]: ≥ 80% | inhibition of growth at 20 ppm [6]: ≥ 80% | control of Phaeosphaeria nodorum compared to untreated control [8]: at least 80% | inhibition of growth at 20 ppm [1]: ≥ 80% | inhibition of growth at 20 ppm [2]: ≥ 80% | control of Pyrenophora teres compared to untreated control [4]: at least 80% | inhibition of growth at 20 ppm [3]: ≥ 80%

Cc1c(C2CN(C(=O)c3nnn(-c4ccc(F)cc4F)n3)Cc3ccccc32)cnn1C (stereo not shown) [Compound P-31, [2-(2,4-difluorophenyl)tetrazol-5-yl]-[4-(1,5-dimethylpyrazol-4-yl)-3,4-dihydro-1H-isoquinolin-2-yl]methanone]
control of Alternaria solani compared to untreated control [7]: at least 80% | inhibition of growth at 20 ppm [5]: ≥ 80% | inhibition of growth at 20 ppm [6]: ≥ 80% | control of Phaeosphaeria nodorum compared to untreated control [8]: at least 80% | inhibition of growth at 20 ppm [1]: ≥ 80% | inhibition of growth at 20 ppm [2]: ≥ 80% | control of Pyrenophora teres compared to untreated control [4]: at least 80% | inhibition of growth at 20 ppm [3]: ≥ 80%

Cc1c(C2CN(C(=O)c3cn(-c4ncc(F)cc4F)nn3)Cc3ccccc32)cnn1C (stereo not shown) [Compound P-57, [1-(3,5-difluoro-2-pyridyl)triazol-4-yl]-[4-(1,5-dimethylpyrazol-4-yl)-3,4-dihydro-1H-isoquinolin-2-yl]methanone]
control of Alternaria solani compared to untreated control [7]: at least 80% | control of Phaeosphaeria nodorum compared to untreated control [8]: at least 80% | control of Pyrenophora teres compared to untreated control [4]: at least 80% | inhibition of growth at 20 ppm [3]: ≥ 80%

C[C@@H]1c2ccccc2[C@H](c2cnn(C)c2Cl)CN1C(=O)c1cn(-c2ccc(F)cc2F)nn1 [Compound P-47, [(1R,4R)-4-(5-chloro-1-methyl-pyrazol-4-yl)-1-methyl-3,4-dihydro-1H-isoquinolin-2-yl]-[1-(2,4-difluorophenyl)triazol-4-yl]methanone]
inhibition of growth at 20 ppm [2]: ≥ 80% | inhibition of growth at 20 ppm [3]: ≥ 80%

Cn1cc(C2(C)CN(C(=O)c3nnn(-c4ccc(F)cc4F)n3)Cc3ccccc32)cn1 (stereo not shown) [Compound P-32, [2-(2,4-difluorophenyl)tetrazol-5-yl]-[4-methyl-4-(1-methylpyrazol-4-yl)-1,3-dihydroisoquinolin-2-yl]methanone]
inhibition of growth at 20 ppm [3]: ≥ 80%

Cc1c([C@@H]2CN(C(=O)c3cn(-c4ncc(F)cc4F)nn3)[C@H](C)c3ccccc32)cnn1C [Compound P-44, [1-(3,5-difluoro-2-pyridyl)triazol-4-yl]-[(1R,4R)-4-(1,5-dimethylpyrazol-4-yl)-1-methyl-3,4-dihydro-1H-isoquinolin-2-yl]methanone]
inhibition of growth at 20 ppm [6]: ≥ 80% | inhibition of growth at 20 ppm [2]: ≥ 80% | inhibition of growth at 20 ppm [3]: ≥ 80%

COc1ccc2c(c1)[C@H](c1cnn(C)c1)CN(C(=O)c1nnn(-c3ccccc3)n1)[C@@H]2C (single isomer, unassigned) [Compound P-36]
inhibition of growth at 20 ppm [1]: ≥ 80% | inhibition of growth at 20 ppm [2]: ≥ 80% | inhibition of growth at 20 ppm [3]: ≥ 80%

C[C@@H]1c2ccccc2[C@H](c2cnn(C)c2Cl)CN1C(=O)c1nnn(-c2ccc(F)cc2F)n1 [Compound P-50, [(1R,4R)-4-(5-chloro-1-methyl-pyrazol-4-yl)-1-methyl-3,4-dihydro-1H-isoquinolin-2-yl]-[2-(2,4-difluorophenyl)tetrazol-5-yl]methanone]
inhibition of growth at 20 ppm [3]: ≥ 80%

Cn1cc(C2CN(C(=O)c3cnn(-c4ccc(F)cc4)n3)Cc3ccccc32)cn1 (stereo not shown) [Compound P-18, [2-(4-fluorophenyl)triazol-4-yl]-[4-(1-methylpyrazol-4-yl)-3,4-dihydro-1H-isoquinolin-2-yl]methanone]
inhibition of growth at 20 ppm [1]: ≥ 80% | inhibition of growth at 20 ppm [3]: ≥ 80%

Cc1nn(C)c(C)c1C1CN(C(=O)c2cn(-c3ccccc3)nn2)Cc2ccccc21 (stereo not shown) [Compound P-7, (1-phenyltriazol-4-yl)-[4-(1,3,5-trimethylpyrazol-4-yl)-3,4-dihydro-1H-isoquinolin-2-yl]methanone]
inhibition of growth at 20 ppm [2]: ≥ 80% | inhibition of growth at 20 ppm [3]: ≥ 80%

Cn1cc(C2CN(C(=O)c3cn(-c4ccccc4)nn3)Cc3ccccc32)cn1 (stereo not shown) [Compound P-11, [4-(1-methylpyrazol-4-yl)-3,4-dihydro-1H-isoquinolin-2-yl]-(1-phenyltriazol-4-yl)methanone]
inhibition of growth at 20 ppm [6]: ≥ 80% | inhibition of growth at 20 ppm [3]: ≥ 80%

Reference: patent US20260324639A1, “MICROBIOCIDAL PYRAZOLE DERIVATIVES” (SYNGENTA CROP PROTECTION AG, priority 2022, published 2026)
